Measured values reported in ChEMBL document CHEMBL2073970, “Expression cloning and functional characterization of the kidney cortex high-affinity proton-coupled peptide transporter” (Proc Natl Acad Sci U S A, 1996).

Target: T1, Solute carrier family 15 member 2 (Rattus norvegicus) (UniProt Q63424)
T1 sequence (whole entry): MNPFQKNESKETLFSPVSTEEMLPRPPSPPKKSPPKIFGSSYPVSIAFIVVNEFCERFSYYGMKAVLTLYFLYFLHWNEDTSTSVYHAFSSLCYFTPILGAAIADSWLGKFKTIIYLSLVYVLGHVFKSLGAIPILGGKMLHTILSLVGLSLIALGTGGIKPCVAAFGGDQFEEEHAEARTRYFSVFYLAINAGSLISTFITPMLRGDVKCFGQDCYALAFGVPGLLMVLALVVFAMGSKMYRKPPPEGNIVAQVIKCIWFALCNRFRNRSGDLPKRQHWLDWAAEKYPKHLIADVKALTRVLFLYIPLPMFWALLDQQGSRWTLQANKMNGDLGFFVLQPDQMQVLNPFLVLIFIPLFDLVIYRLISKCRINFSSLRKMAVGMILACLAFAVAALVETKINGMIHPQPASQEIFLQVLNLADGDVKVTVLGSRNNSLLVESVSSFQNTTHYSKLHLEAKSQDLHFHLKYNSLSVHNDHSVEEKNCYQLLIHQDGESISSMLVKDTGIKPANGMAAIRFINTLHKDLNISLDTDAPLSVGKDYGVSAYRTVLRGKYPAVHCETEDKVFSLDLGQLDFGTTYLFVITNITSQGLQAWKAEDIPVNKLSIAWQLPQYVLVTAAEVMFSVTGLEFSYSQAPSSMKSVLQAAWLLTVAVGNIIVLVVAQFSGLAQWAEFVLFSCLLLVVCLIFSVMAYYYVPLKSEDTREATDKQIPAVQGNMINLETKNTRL
Assay: TP_TRANSPORTER: inhibition of Cefadroxil uptake (Cefadroxil: 25 uM, Loracarbef: 5000uM) in Xenopus laevis oocytes
Format: functional, cell-based
Conditions: Oocyte

Compound: N[C@@H](C(=O)N[C@@H]1C(=O)N2C(C(=O)O)=C(Cl)CC[C@H]12)c1ccccc1
- Activity: inhibitor [15% (at a rough estimate) of control]
